Entries after “also recorded” stand apart in the source; their conditions may differ.
What was measured:
[1] = H2O2 (antioxidant) activity assay; type: biochemical
Text: FIG. 17(A-F) is an exemplary embodiment of identification of novel ERO1α inhibitors by high throughput screening in accordance with the present disclosure. FIG. 17A: A scheme of an ERO1α activity assay. FIG. 17B: Screening of chemical libraries in the ERO1α activity assay. FIG. 17C: The inhibitory effect of selected compounds on ERO1α activity. FIG. 17D: The inhibitory effect of selected compounds on PDI activity. FIG. 17E: The inhibitory effect of selected compounds on H2O2 activity. FIG. 17F: The inhibitory effect of selected compounds on thiol-reacting activity. The data represent the mean±SD (n=3). *P<0.05, **P<0.01, ***P<0.001, and ****P<0.0001 vs. vehicle control, Student's t-test.
To identify a novel ERO1α inhibitor, 5800 compounds were screened using an ERO1α activity assay (FIG. 17A and FIG. 17B). […] The selected compounds were further tested in assays measuring PDI, antioxidant, and thiol-reacting activities (FIG. 17D through FIG. 17F). […] B12 inhibited P-selectin exposure and αIIbβ3 activation in agonist-activated mouse and human platelets in a concentration-dependent manner (FIG. 18B through FIG. 18E).

mouse platelets = assay: Flow cytometry of P-selectin exposure and αIIbβ3 integrin activation, mouse platelets; type: cell-based; settings: 3 to 10 μM, mouse platelets, thrombin or CRP
Protocol: FIG. 10(A-E) is an exemplary embodiment of 15E9 not affecting platelet activation and aggregation in accordance with the present disclosure. Mouse platelets were treated with 0.02-0.03 (FIG. 10A P-selectin, FIG. 10B aIIbβ3) or 0.025 U/ml thrombin (FIG. 10C) in the presence of 10 μg/ml mouse IgG2a (IgG2a) or a blocking anti-ERO1α antibody (15E9). Flow cytometry (FIG. 10(A-B)) and aggregation (FIG. 10C) assays were performed. FIG. 10D: Human platelets were treated with 0.025 U/ml thrombin in the presence of mouse IgG2a (mIgG2a) or 10 μg/ml 15E9 and 16B6, followed by measuring aggregation. […] P values determined by unpaired Student's t-test (vs. mIgG1).
FIG. 18(A-R) is an exemplary embodiment of novel small-molecule inhibitors recapitulating the defect in Ero1α (endoplasmic reticulum oxidoreductase 1a)-null platelets in accordance with the present disclosure. […] After incubation with a different concentration of B12-5, the specific interaction between B12-5 and ERO1α was measured by subtracting the nonspecific binding. The KD value was calculated from the Kon and Koff values. […] P values determined by ANOVA and Dunnett test (FIG. 18(B-E), FIG. 18(1-L), and FIG. 18(O-R) [for B12-5]) or Student t test (FIG. 18M, FIG. 18N, and FIG. 18(O-R) [for BAPTA (1,2-bis(o-aminophenoxy)ethane-N,N,N′,N′-tetraacetic acid)]). […]

human platelets = assay: Platelet aggregation, human platelets; type: cell-based; settings: 3 to 10 μM
Protocol: FIG. 9(A-C) is an exemplary embodiment of EN460 inhibiting thrombin-induced aggregation of mouse and human platelets in accordance with the present disclosure. (A) Human (FIG. 9A), WT (FIG. 9B), and Ero1α-null (FIG. 9C) platelets were pretreated with EN460, an ERO1α inhibitor, at 1, 3, or 10 μM, and treated with 0.025 U/ml thrombin to induce platelet aggregation. The data represent the mean±SD (n=3). P values determined by ANOVA and Dunnett's test (FIG. 9(A-B)) or Student's t-test (FIG. 9C).
FIG. 10(A-E) is an exemplary embodiment of 15E9 not affecting platelet activation and aggregation in accordance with the present disclosure. Mouse platelets were treated with 0.02-0.03 (FIG. 10A P-selectin, FIG. 10B aIIbβ3) or 0.025 U/ml thrombin (FIG. 10C) in the presence of 10 μg/ml mouse IgG2a (IgG2a) or a blocking anti-ERO1α antibody (15E9). Flow cytometry (FIG. 10(A-B)) and aggregation (FIG. 10C) assays were performed. FIG. 10D: Human platelets were treated with 0.025 U/ml thrombin in the presence of mouse IgG2a (mIgG2a) or 10 μg/ml 15E9 and 16B6, followed by measuring aggregation. FIG. 10E: WT and Ero1α null platelets were treated with 10 μg/ml mouse IgG1 (mIgG1) or a blocking anti-PDI antibody (BD34), followed by measuring aggregation induced by 0.025 U/ml thrombin. The data represent the mean±SD (n=3). P values determined by unpaired Student's t-test (vs. mIgG1).

Row | SMILES | H2O2 inhibition at 100 μM (%) ([1]; 100 μM) | effect on H2O2 (antioxidant) activity ([1]; at or up to 100 μM) | P-selectin exposure and αIIbβ3 activation (mouse platelets) | thrombin-induced aggregation (human platelets)
1 | O=C(CSc1nc(O)cc(O)n1)N1c2ccccc2Sc2ccccc21 [B12-5] | 6.6 ± 2% | minimal effect; also recorded: did not affect | significantly reduced | 
2 | O=C(O)c1cc(N2N=C(C(F)(F)F)/C(=C/c3ccc(-c4ccccc4)o3)C2=O)ccc1Cl [EN460] |  |  |  | abrogated

— patent publication US20240366624A1, “METHODS AND COMPOSITIONS FOR TREATING THROMBOTIC DISEASE” (Washington University, priority 2023, published 2024)
